According to the supplement of paper PMC6045584:
± gives the standard deviation of the averaged measurements.

Compound: COc1cc2c(cc1O)CC[C@@H]1[C@@H]2CC[C@]2(C)[C@@H](O)CC[C@@H]12 [2-METHOXYESTRADIOL]
Test: surviving fraction relative to DMSO-only wells; higher = less growth inhibition
Details: 50 nM; exposure time: 5 days
In short: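 Inhibitors at 0.5, 1, 5, 10, 50, 100, 500 and 1000 nM were applied continuously for five days to tumour cell lines seeded in log phase at 250–500 cells per well in 384-well plates 24 hours earlier. Viability was measured by CellTiter-Glo luminescence and expressed as surviving fraction relative to the median of DMSO-only wells. Luminescence was taken after 10 minutes at room temperature.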

Point of comparison: SCC47 HEADNECK, surviving fraction 1.09 ± 0.11. Against it:
- SCC36 HEADNECK — within error, 1.22 ± 0.065
- OS25HAL BONE — within error, 1 ± 0.086
- HCC1806 BREAST — within error, 1.06 ± 0.053
- HU09 BONE — within error, 1.12 ± 0.081
- SG43 HEADNECK — lower, 0.702 ± 0.091
- U2OS BONE — within error, 1.06 ± 0.017
- HOSMNG BONE — within error, 1.05 ± 0.11
- CASKI CERVIX — within error, 1.02 ± 0.057
- SUM44 BREAST — within error, 1.3 ± 0.4
- MDAMB231 BREAST — within error, 0.983 ± 0.027
- CAL51 BREAST — within error, 0.967 ± 0.044
- MDAMB436 BREAST — within error, 0.956 ± 0.065
- HSSYII SYNOVIAL — lower, 0.915 ± 0.018
- RDES SOFT TISSUE — within error, 1.29 ± 0.15
- MDAMB157 BREAST — lower, 0.959 ± 0.012
- CHLA90 AUTONOMIC GANGLIA — within error, 0.997 ± 0.047
- CADOES1 SOFT TISSUE — lower, 0.886 ± 0.047
- SG31 HEADNECK — within error, 1 ± 0.077
- S68 BREAST — within error, 1.24 ± 0.23
- SNU475 LIVER — within error, 1.02 ± 0.053
- 22RV1 PROSTATE — within error, 1.03 ± 0.073
- SG32 HEADNECK — within error, 0.947 ± 0.059
- SCC003 HEADNECK — within error, 1.04 ± 0.043
- JURKAT HAEMATOPOIETIC AND LYMPHOID TISSUE — within error, 1.02 ± 0.032
- HT1080 SOFT TISSUE — within error, 1.01 ± 0.043
- CAL120 BREAST — within error, 0.931 ± 0.071
- MCF7 BREAST — lower, 0.903 ± 0.027
- MFM223 BREAST — within error, 1.06 ± 0.034
- LNCAP PROSTATE — within error, 0.884 ± 0.13
- PCI30 HEADNECK — within error, 1.01 ± 0.078
- OSHN BONE — within error, 1.054 ± 0.0092
- SG28 HEADNECK — within error, 1.11 ± 0.13
- HOS BONE — within error, 1.04 ± 0.015
- HUO3N1 BONE — within error, 1.07 ± 0.022
- BT20 BREAST — within error, 1.24 ± 0.14
- SJSA1 BONE — higher, 1.75 ± 0.13
- JIMT1 BREAST — the same, 1.09 ± 0.013
- HCC78 LUNG — lower, 0.827 ± 0.14
- NY BONE — within error, 1.03 ± 0.018
- NOS1 BONE — within error, 1.13 ± 0.23

Same assay, conditions: 100 nM; exposure time: 5 days

Point of comparison: MCF7 BREAST, surviving fraction 0.924 ± 0.083. Against it:
- SCC36 HEADNECK — higher, 1.14 ± 0.016
- OS25HAL BONE — within error, 1.05 ± 0.072
- HCC1806 BREAST — higher, 1.15 ± 0.079
- HU09 BONE — within error, 1.08 ± 0.095
- SG43 HEADNECK — within error, 0.854 ± 0.23
- U2OS BONE — within error, 1.01 ± 0.021
- HOSMNG BONE — within error, 1.03 ± 0.084
- CASKI CERVIX — within error, 1.05 ± 0.052
- SUM44 BREAST — within error, 1.21 ± 0.33
- MDAMB231 BREAST — within error, 0.989 ± 0.027
- CAL51 BREAST — within error, 1 ± 0.046
- MDAMB436 BREAST — within error, 0.971 ± 0.045
- HSSYII SYNOVIAL — lower, 0.764 ± 0.013
- RDES SOFT TISSUE — higher, 1.17 ± 0.14
- MDAMB157 BREAST — within error, 0.932 ± 0.013
- CHLA90 AUTONOMIC GANGLIA — within error, 0.998 ± 0.029
- CADOES1 SOFT TISSUE — within error, 0.867 ± 0.15
- SG31 HEADNECK — within error, 0.949 ± 0.025
- SCC47 HEADNECK — within error, 1.12 ± 0.15
- S68 BREAST — within error, 0.985 ± 0.067
- SNU475 LIVER — within error, 0.997 ± 0.059
- 22RV1 PROSTATE — within error, 0.903 ± 0.16
- SG32 HEADNECK — within error, 0.847 ± 0.075
- SCC003 HEADNECK — higher, 1.11 ± 0.017
- JURKAT HAEMATOPOIETIC AND LYMPHOID TISSUE — within error, 0.993 ± 0.016
- HT1080 SOFT TISSUE — within error, 0.999 ± 0.033
- CAL120 BREAST — within error, 0.933 ± 0.021
- MFM223 BREAST — within error, 0.973 ± 0.026
- LNCAP PROSTATE — within error, 0.809 ± 0.091
- PCI30 HEADNECK — within error, 0.982 ± 0.051
- OSHN BONE — higher, 1.068 ± 0.007
- SG28 HEADNECK — higher, 1.06 ± 0.048
- HOS BONE — higher, 1.05 ± 0.025
- HUO3N1 BONE — within error, 1.02 ± 0.041
- BT20 BREAST — higher, 1.11 ± 0.067
- SJSA1 BONE — higher, 1.77 ± 0.08
- JIMT1 BREAST — higher, 1.05 ± 0.021
- HCC78 LUNG — within error, 0.759 ± 0.14
- NY BONE — within error, 1 ± 0.031
- NOS1 BONE — higher, 1.22 ± 0.097

Same assay, conditions: 500 nM; exposure time: 5 days

Point of comparison: PCI30 HEADNECK, surviving fraction 0.421 ± 0.048. Against it:
- SCC36 HEADNECK — higher, 0.94 ± 0.096
- OS25HAL BONE — within error, 0.501 ± 0.092
- HCC1806 BREAST — higher, 1.06 ± 0.11
- HU09 BONE — higher, 0.512 ± 0.015
- SG43 HEADNECK — higher, 0.91 ± 0.082
- U2OS BONE — higher, 0.681 ± 0.02
- HOSMNG BONE — higher, 0.652 ± 0.053
- CASKI CERVIX — higher, 0.683 ± 0.1
- SUM44 BREAST — higher, 0.837 ± 0.091
- MDAMB231 BREAST — higher, 0.545 ± 0.025
- CAL51 BREAST — within error, 0.48 ± 0.036
- MDAMB436 BREAST — higher, 0.779 ± 0.12
- HSSYII SYNOVIAL — lower, 0.139 ± 0.0043
- RDES SOFT TISSUE — higher, 1.13 ± 0.12
- MDAMB157 BREAST — higher, 0.76 ± 0.055
- CHLA90 AUTONOMIC GANGLIA — higher, 0.896 ± 0.08
- CADOES1 SOFT TISSUE — higher, 0.964 ± 0.062
- SG31 HEADNECK — higher, 1.12 ± 0.13
- SCC47 HEADNECK — higher, 0.838 ± 0.046
- S68 BREAST — higher, 0.617 ± 0.036
- SNU475 LIVER — higher, 0.956 ± 0.057
- 22RV1 PROSTATE — higher, 0.791 ± 0.18
- SG32 HEADNECK — higher, 0.62 ± 0.12
- SCC003 HEADNECK — higher, 0.867 ± 0.15
- JURKAT HAEMATOPOIETIC AND LYMPHOID TISSUE — lower, 0.043 ± 0.001
- HT1080 SOFT TISSUE — higher, 0.756 ± 0.049
- CAL120 BREAST — higher, 0.676 ± 0.025
- MCF7 BREAST — higher, 0.943 ± 0.048
- MFM223 BREAST — within error, 0.384 ± 0.057
- LNCAP PROSTATE — higher, 0.681 ± 0.033
- OSHN BONE — higher, 1.04 ± 0.033
- SG28 HEADNECK — higher, 1.06 ± 0.066
- HOS BONE — higher, 0.96 ± 0.02
- HUO3N1 BONE — higher, 0.87 ± 0.059
- BT20 BREAST — higher, 1.13 ± 0.044
- SJSA1 BONE — higher, 1.67 ± 0.043
- JIMT1 BREAST — higher, 0.762 ± 0.053
- HCC78 LUNG — within error, 0.298 ± 0.087
- NY BONE — lower, 0.106 ± 0.0015
- NOS1 BONE — higher, 0.981 ± 0.055

Same assay, conditions: 1000 nM; exposure time: 5 days

Point of comparison: S68 BREAST, surviving fraction 0.325 ± 0.017. Against it:
- SCC36 HEADNECK — lower, 0.251 ± 0.029
- OS25HAL BONE — lower, 0.169 ± 0.014
- HCC1806 BREAST — higher, 0.808 ± 0.036
- HU09 BONE — lower, 0.159 ± 0.029
- SG43 HEADNECK — higher, 0.847 ± 0.11
- U2OS BONE — within error, 0.359 ± 0.033
- HOSMNG BONE — lower, 0.168 ± 0.011
- CASKI CERVIX — lower, 0.0593 ± 0.004
- SUM44 BREAST — higher, 0.53 ± 0.054
- MDAMB231 BREAST — lower, 0.258 ± 0.012
- CAL51 BREAST — lower, 0.0988 ± 0.0065
- MDAMB436 BREAST — higher, 0.62 ± 0.079
- HSSYII SYNOVIAL — lower, 0.0593 ± 0.0049
- RDES SOFT TISSUE — lower, 0.178 ± 0.034
- MDAMB157 BREAST — within error, 0.31 ± 0.066
- CHLA90 AUTONOMIC GANGLIA — higher, 0.663 ± 0.005
- CADOES1 SOFT TISSUE — within error, 0.358 ± 0.098
- SG31 HEADNECK — higher, 0.962 ± 0.073
- SCC47 HEADNECK — higher, 0.872 ± 0.12
- SNU475 LIVER — higher, 0.775 ± 0.051
- 22RV1 PROSTATE — higher, 0.646 ± 0.068
- SG32 HEADNECK — within error, 0.34 ± 0.034
- SCC003 HEADNECK — higher, 0.734 ± 0.087
- JURKAT HAEMATOPOIETIC AND LYMPHOID TISSUE — lower, 0.042 ± 0.001
- HT1080 SOFT TISSUE — within error, 0.313 ± 0.028
- CAL120 BREAST — within error, 0.316 ± 0.03
- MCF7 BREAST — higher, 0.685 ± 0.086
- MFM223 BREAST — lower, 0.16 ± 0.032
- LNCAP PROSTATE — lower, 0.208 ± 0.0072
- PCI30 HEADNECK — lower, 0.216 ± 0.046
- OSHN BONE — lower, 0.044 ± 0.0036
- SG28 HEADNECK — higher, 1.02 ± 0.064
- HOS BONE — lower, 0.158 ± 0.011
- HUO3N1 BONE — higher, 0.537 ± 0.03
- BT20 BREAST — higher, 0.662 ± 0.048
- SJSA1 BONE — higher, 1.78 ± 0.08
- JIMT1 BREAST — higher, 0.403 ± 0.045
- HCC78 LUNG — lower, 0.0893 ± 0.036
- NY BONE — lower, 0.057 ± 0.0036
- NOS1 BONE — higher, 0.438 ± 0.036
